The results in this text go back to ChEMBL document CHEMBL3097998, “Oxidative cleavage of DNA by pentamethine carbocyanine dyes irradiated with long-wavelength visible light” (Bioorg Med Chem Lett, 2014).

Activity calls are given as the source filed them. No cut-off for these calls is given here.

The test system of test [1] is DNA. Put plainly: Binding affinity to calf thymus DNA at 10 uM incubated for 60 mins under dark condition by fluorescence emission spectra analysis. To be noted: Bos taurus. Format: nucleic-acid assay.
In test [2] the test system is Escherichia coli. Nature of the test: Induction of Escherichia coli pUC19 DNA photocleavage assessed as conversion of supercoiled DNA to linear and nicked form of DNA at 10 uM treated for 60 mins followed by irradiation at 700 nm for 60 mins by agarose gel electrophoresis (reference value: 3%).
The subject of test [3] is Escherichia coli. Put plainly: Induction of Escherichia coli pUC19 DNA photocleavage assessed as conversion of supercoiled DNA to linear and nicked form of DNA at 10 uM treated for 60 mins followed by irradiation at 623 nm for 60 mins by agarose gel electrophoresis (reference value: 10%).
The subject of test [4] is Escherichia coli. Nature of the test: Induction of Escherichia coli pUC19 DNA photocleavage assessed as conversion of supercoiled DNA to linear and nicked form of DNA at 10 uM treated for 60 mins followed by irradiation at 588 nm for 60 mins by agarose gel electrophoresis (reference value: 15%).
Test [5] has as its system Escherichia coli. Put plainly: Induction of Escherichia coli pUC19 DNA cleavage assessed as conversion of supercoiled DNA to linear and nicked form of DNA at 10 uM after 60 mins by agarose gel electrophoresis.
For test [6], the system named is Escherichia coli. Nature of the test: Induction of Escherichia coli pUC19 DNA photocleavage assessed as conversion of supercoiled DNA to linear and nicked form of DNA at 10 uM treated for 60 mins followed by irradiation at 575 nm for 60 mins by agarose gel electrophoresis (reference value: 6 +/- 2%).
Test [7] concerns DNA. Nature of the test: Binding affinity to calf thymus DNA at 10 uM after 60 mins by UV-visible absorption spectra analysis. Format: nucleic-acid assay. The following applies: Bos taurus.
The test system of test [8] is DNA. Put plainly: Binding affinity to calf thymus DNA at 10 uM using sequential DNA addition followed by 15 mins incubation under dark condition by UV-visible spectroscopy. Format: nucleic-acid assay. The following applies: Bos taurus.
Test [9] has as its system Escherichia coli. Nature of the test: Induction of Escherichia coli pUC19 DNA photocleavage assessed as conversion of supercoiled DNA to linear and nicked form of DNA after 60 mins followed by irradiation at 575 nm for 60 mins by agarose gel electrophoresis.
Test [10] concerns Escherichia coli. Nature of the test: Induction of Escherichia coli pUC19 DNA photocleavage at 10 uM treated for 60 mins followed by irradiation at 575 nm for 60 mins by agarose gel electrophoresis in presence of sodium benzoate.
Test [11] concerns Escherichia coli. Put plainly: Induction of Escherichia coli pUC19 DNA photocleavage at 10 uM treated for 60 mins followed by irradiation at 575 nm for 60 mins by agarose gel electrophoresis in presence of sodium azide.

With `CC1(C)C(/C=C/C(Cl)=C/C=C2/N(CCCc3ccccc3)c3ccc4ccccc4c3C2(C)C)=[N+](CCCc2ccccc2)c2ccc3ccccc3c21`, the outcome in the test on DNA [1] was Active. Also, the Activity with Escherichia coli [2] turned out to be 2%; in the test on Escherichia coli [3], 8%; in the test with Escherichia coli [4], 13%; in the test on Escherichia coli [5] it was 4%; in the test with Escherichia coli [6], 13%.

For the compound `CN1/C(=C/C=C(Cl)/C=C/C2=[N+](C)c3ccc4ccccc4c3C2(C)C)C(C)(C)c2c1ccc1ccccc21`, the outcome with DNA [1], in the test on DNA [7] and in the test on DNA [8] was Active. For the same compound, the Activity entry in the test on Escherichia coli [9] was “Dose-dependent effect”; in the test with Escherichia coli [2] it was 33%; in the test with Escherichia coli [3] it was 42%; in the test with Escherichia coli [4], 46%; in the test with Escherichia coli [5] it was 2%; in the test with Escherichia coli [6] it was 83%. Moreover, the outcome in the test on Escherichia coli [10] and in the test with Escherichia coli [11] was inactive.

In the case of `CN1/C(=C/C=C(Br)/C=C/C2=[N+](C)c3ccc4ccccc4c3C2(C)C)C(C)(C)c2c1ccc1ccccc21`, the result with DNA [1], with DNA [7] and in the test with DNA [8] was Active. The Activity entry in the test on Escherichia coli [9] is “Dose-dependent effect”; in the test with Escherichia coli [2] it was 49%; in the test with Escherichia coli [3] it was 46%; with Escherichia coli [4] it was 55%; with Escherichia coli [5], 3%; in the test on Escherichia coli [6], 86%. Moreover, the result with Escherichia coli [10] and with Escherichia coli [11] was inactive.

On to `CN1/C(=C/C=C/C=C/C2=[N+](C)c3ccc4ccccc4c3C2(C)C)C(C)(C)c2c1ccc1ccccc21`, for which the outcome in the test with DNA [1], in the test on DNA [7] and with DNA [8] was Active. Besides, the outcome with Escherichia coli [10] and in the test on Escherichia coli [11] was inactive. Besides, the Activity in the test with Escherichia coli [2] was 18%; in the test with Escherichia coli [3], 29%; in the test on Escherichia coli [4], 25%; with Escherichia coli [5], 2%; with Escherichia coli [6] it was 59%.

For the compound `CC1(C)C(/C=C/C(Cl)=C/C=C2/N(CCC[N+](C)(C)C)c3ccc4ccccc4c3C2(C)C)=[N+](CCC[N+](C)(C)C)c2ccc3ccccc3c21`, the result with DNA [1], in the test with DNA [7] and in the test with DNA [8] was Active. Also, the Activity entry in the test on Escherichia coli [9] is “Dose-dependent effect”; in the test on Escherichia coli [2], 67%; with Escherichia coli [3], 48%; with Escherichia coli [4] it was 55%; with Escherichia coli [5], 5%; in the test on Escherichia coli [6] it was 91%. Besides, the outcome in the test on Escherichia coli [10] and in the test with Escherichia coli [11] was inactive.

As to `CC1(C)C(/C=C/C=C/C=C2/N(CCC[N+](C)(C)C)c3ccc4ccccc4c3C2(C)C)=[N+](CCC[N+](C)(C)C)c2ccc3ccccc3c21`, the outcome with DNA [1], in the test with DNA [7] and in the test with DNA [8] was Active. Further, the result with Escherichia coli [10] and in the test on Escherichia coli [11] was inactive. The Activity in the test on Escherichia coli [2] is 34%; in the test on Escherichia coli [3], 41%; in the test on Escherichia coli [4], 20%; in the test on Escherichia coli [5], 1%; in the test on Escherichia coli [6] it was 47%.

As for `CC1(C)C(/C=C/C(Br)=C/C=C2/N(CCC[N+](C)(C)C)c3ccc4ccccc4c3C2(C)C)=[N+](CCC[N+](C)(C)C)c2ccc3ccccc3c21`, the outcome in the test on DNA [1], in the test on DNA [7] and in the test on DNA [8] was Active. For the same compound, the Activity entry in the test with Escherichia coli [9] was “Dose-dependent effect”; in the test with Escherichia coli [2], 59%; with Escherichia coli [3], 56%; in the test with Escherichia coli [4] it was 47%; in the test with Escherichia coli [5], 7%; in the test on Escherichia coli [6] it was 78%. In addition, the result in the test on Escherichia coli [10] and in the test with Escherichia coli [11] was inactive.
